ChEMBL document CHEMBL1153306, “Relation between lipophilicity of alkyl gallates and antifungal activity against yeasts and filamentous fungi” (Bioorg Med Chem Lett, 2009)
In brackets after ≈: the same amount, converted by molar mass.

Key:
Type in all cases: functional
[1] = test system: Saccharomyces cerevisiae; assay: Antifungal activity against Saccharomyces cerevisiae after 48 hrs by broth microdilution technique
[2] = test system: Aspergillus flavus; assay: Antimicrobial activity against Aspergillus flavus after 48 hrs by broth microdilution technique
[3] = test system: Candida tropicalis; assay: Antifungal activity against Candida tropicalis after 48 hrs by broth microdilution technique
[4] = test system: Epidermophyton floccosum; assay: Antimicrobial activity against Epidermophyton floccosum after 48 hrs by broth microdilution technique
[5] = test system: Candida albicans; assay: Antifungal activity against Candida albicans after 48 hrs by broth microdilution technique
[6] = test system: Aspergillus fumigatus; assay: Antimicrobial activity against Aspergillus fumigatus after 48 hrs by broth microdilution technique
[7] = test system: Nannizzia gypsea; assay: Antimicrobial activity against Microsporum gypseum after 48 hrs by broth microdilution technique
[8] = test system: Trichophyton rubrum; assay: Antimicrobial activity against Trichophyton rubrum after 48 hrs by broth microdilution technique
[9] = test system: Cryptococcus neoformans; assay: Antifungal activity against Cryptococcus neoformans after 48 hrs by broth microdilution technique
[10] = test system: Trichophyton mentagrophytes; assay: Antimicrobial activity against Trichophyton mentagrophytes after 48 hrs by broth microdilution technique
[11] = test system: Aspergillus niger; assay: Antimicrobial activity against Aspergillus niger after 48 hrs by broth microdilution technique

SMILES | MIC [1] | MIC [2] | MIC [3] | MIC [4] | MIC [5] | MIC [6] | MIC [7] | MIC [8] | MIC [9] | MIC [10] | MIC [11]
COC(=O)c1cc(O)c(O)c(O)c1 [GALLIC ACID METHYL ESTER] | > 250 µg/mL | > 250 µg/mL | > 250 µg/mL | 100 µg/mL (≈ 543 µM) | > 250 µg/mL | > 250 µg/mL | 100 µg/mL (≈ 543 µM) | 100 µg/mL (≈ 543 µM) | > 250 µg/mL | 100 µg/mL (≈ 543 µM) | > 250 µg/mL
CCCOC(=O)c1cc(O)c(O)c(O)c1 [PROPYL GALLATE] | > 250 µg/mL | > 250 µg/mL | > 250 µg/mL | 100 µg/mL (≈ 471 µM) | > 250 µg/mL | > 250 µg/mL | 75 µg/mL (≈ 353 µM) | 50 µg/mL (≈ 236 µM) | > 250 µg/mL | 100 µg/mL (≈ 471 µM) | > 250 µg/mL
CCCCCCCCCCCCOC(=O)c1cc(O)c(O)c(O)c1 [DODECYL GALLATE] | > 250 µg/mL | > 250 µg/mL | > 250 µg/mL |  | > 250 µg/mL | > 250 µg/mL | 100 µg/mL (≈ 295 µM) | 50 µg/mL (≈ 148 µM) | > 250 µg/mL | 50 µg/mL (≈ 148 µM) | > 250 µg/mL
CCCCOC(=O)c1cc(O)c(O)c(O)c1 [BUTYL GALLATE] | > 250 µg/mL | > 250 µg/mL | > 250 µg/mL | 100 µg/mL (≈ 442 µM) | > 250 µg/mL | > 250 µg/mL | 50 µg/mL (≈ 221 µM) | 50 µg/mL (≈ 221 µM) | > 250 µg/mL | 100 µg/mL (≈ 442 µM) | > 250 µg/mL
CCCCCCCCCCCCCCOC(=O)c1cc(O)c(O)c(O)c1 [TETRADECYL GALLATE] | > 250 µg/mL | > 250 µg/mL | > 250 µg/mL | > 250 µg/mL | > 250 µg/mL | > 250 µg/mL | 100 µg/mL (≈ 273 µM) | 50 µg/mL (≈ 136 µM) | 250 µg/mL (≈ 682 µM) | 50 µg/mL (≈ 136 µM) | > 250 µg/mL
CCCCCCCOC(=O)c1cc(O)c(O)c(O)c1 [HEPTYL GALLATE] | 100 µg/mL (≈ 373 µM) | 100 µg/mL (≈ 373 µM) | 100 µg/mL (≈ 373 µM) | 6.25 µg/mL (≈ 23.3 µM) | 100 µg/mL (≈ 373 µM) | 100 µg/mL (≈ 373 µM) | 6.25 µg/mL (≈ 23.3 µM) | 6.25 µg/mL (≈ 23.3 µM) | 62.5 µg/mL (≈ 233 µM) | 12.5 µg/mL (≈ 46.6 µM) | 100 µg/mL (≈ 373 µM)
CCCCCCCCCCCCCCCCOC(=O)c1cc(O)c(O)c(O)c1 [HEXADECYL GALLATE] | > 250 µg/mL | > 250 µg/mL | > 250 µg/mL |  | > 250 µg/mL | > 250 µg/mL | 250 µg/mL (≈ 634 µM) | 250 µg/mL (≈ 634 µM) | > 250 µg/mL | 125 µg/mL (≈ 317 µM) | > 250 µg/mL
CCCCCCCCCCCCCCCCCCOC(=O)c1cc(O)c(O)c(O)c1 [OCTADECYL GALLATE] | > 250 µg/mL | > 250 µg/mL | > 250 µg/mL | 250 µg/mL (≈ 592 µM) | > 250 µg/mL | > 250 µg/mL | > 250 µg/mL | 250 µg/mL (≈ 592 µM) | > 250 µg/mL | > 250 µg/mL | > 250 µg/mL
CCOC(=O)c1cc(OC)c(OC)c(OC)c1 [ETHYLTRIMETHOXY BENZOATE] | > 250 µg/mL | > 250 µg/mL | > 250 µg/mL | > 250 µg/mL | > 250 µg/mL | > 250 µg/mL | > 250 µg/mL | > 250 µg/mL | > 250 µg/mL | > 250 µg/mL | > 250 µg/mL
COc1cc(C(=O)O)cc(OC)c1OC [3,4,5-TRIMETHOXYBENZOIC ACID] | > 250 µg/mL | > 250 µg/mL | > 250 µg/mL | > 250 µg/mL | > 250 µg/mL | > 250 µg/mL | > 250 µg/mL | > 250 µg/mL | > 250 µg/mL | > 250 µg/mL | > 250 µg/mL
Oc1cccc(O)c1O [PYROGALLOL] | 100 µg/mL (≈ 793 µM) | > 250 µg/mL | 100 µg/mL (≈ 793 µM) | 12.5 µg/mL (≈ 99.1 µM) | 100 µg/mL (≈ 793 µM) | 100 µg/mL (≈ 793 µM) | 50 µg/mL (≈ 396 µM) | 25 µg/mL (≈ 198 µM) | 62.5 µg/mL (≈ 496 µM) | 50 µg/mL (≈ 396 µM) | > 250 µg/mL
CCCCCCOC(=O)c1cc(O)c(O)c(O)c1 [HEXYL GALLATE] | > 250 µg/mL | > 250 µg/mL | > 250 µg/mL | 25 µg/mL (≈ 98.3 µM) | > 250 µg/mL | > 250 µg/mL | 25 µg/mL (≈ 98.3 µM) | 25 µg/mL (≈ 98.3 µM) | > 250 µg/mL | 25 µg/mL (≈ 98.3 µM) | > 250 µg/mL
CCCCCCCCCCOC(=O)c1cc(O)c(O)c(O)c1 [DECYL GALLATE] | 100 µg/mL (≈ 322 µM) | > 250 µg/mL | 100 µg/mL (≈ 322 µM) | 25 µg/mL (≈ 80.5 µM) | 100 µg/mL (≈ 322 µM) | 100 µg/mL (≈ 322 µM) | 50 µg/mL (≈ 161 µM) | 12.5 µg/mL (≈ 40.3 µM) | 50 µg/mL (≈ 161 µM) | 50 µg/mL (≈ 161 µM) | > 250 µg/mL
C[C@@H]1[C@H](O)[C@@H](C)/C=C/C=C/C=C/C=C/C=C/C=C/C=C/[C@H](O[C@@H]2O[C@H](C)[C@@H](O)[C@H](N)[C@@H]2O)C[C@@H]2O[C@](O)(C[C@@H](O)C[C@@H](O)[C@H](O)CC[C@@H](O)C[C@@H](O)CC(=O)O[C@H]1C)C[C@H](O)[C@H]2C(=O)O [AMPHOTERICIN B] | 0.5 µg/mL (≈ 0.541 µM) | 0.5 µg/mL (≈ 0.541 µM) | 0.5 µg/mL (≈ 0.541 µM) |  | 0.78 µg/mL (≈ 0.844 µM) | 0.5 µg/mL (≈ 0.541 µM) |  |  | 0.25 µg/mL (≈ 0.271 µM) |  | 0.5 µg/mL (≈ 0.541 µM)
CCCCCCCCCCCOC(=O)c1cc(O)c(O)c(O)c1 [UNDECYL GALLATE] | 200 µg/mL (≈ 616 µM) | > 250 µg/mL | 200 µg/mL (≈ 616 µM) |  | 250 µg/mL (≈ 771 µM) | > 250 µg/mL | 125 µg/mL (≈ 385 µM) | 125 µg/mL (≈ 385 µM) | 100 µg/mL (≈ 308 µM) | 100 µg/mL (≈ 308 µM) | > 250 µg/mL
CCCCCOC(=O)c1cc(O)c(O)c(O)c1 [PENTYL GALLATE] | > 250 µg/mL | > 250 µg/mL | > 250 µg/mL | 100 µg/mL (≈ 416 µM) | > 250 µg/mL | > 250 µg/mL | 50 µg/mL (≈ 208 µM) | 50 µg/mL (≈ 208 µM) | > 250 µg/mL | 50 µg/mL (≈ 208 µM) | > 250 µg/mL
CN(C/C=C/C#CC(C)(C)C)Cc1cccc2ccccc12 [TERBINAFINE] |  |  |  | 0.004 µg/mL (≈ 0.0137 µM) |  |  | 0.04 µg/mL (≈ 0.137 µM) | 0.01 µg/mL (≈ 0.0343 µM) |  | 0.04 µg/mL (≈ 0.137 µM) | 
O=C(O)c1cc(O)c(O)c(O)c1 [GALLIC ACID] | > 250 µg/mL | > 250 µg/mL | > 250 µg/mL | 100 µg/mL (≈ 588 µM) | > 250 µg/mL | > 250 µg/mL | > 250 µg/mL | 100 µg/mL (≈ 588 µM) | > 250 µg/mL | 125 µg/mL (≈ 735 µM) | > 250 µg/mL
CC(=O)N1CCN(c2ccc(OCC3COC(Cn4ccnc4)(c4ccc(Cl)cc4Cl)O3)cc2)CC1 (configuration not stated) [KETOCONAZOLE] | 3.12 µg/mL (≈ 5.87 µM) | 0.78 µg/mL (≈ 1.47 µM) | 0.125 µg/mL (≈ 0.235 µM) |  | 1.56 µg/mL (≈ 2.94 µM) | 0.78 µg/mL (≈ 1.47 µM) |  |  | 0.39 µg/mL (≈ 0.734 µM) |  | 1.56 µg/mL (≈ 2.94 µM)
CC(=O)Oc1cc(C(=O)O)cc(OC(C)=O)c1OC(C)=O [3,4,5-TRIACETOXYBENZOIC ACID] | > 250 µg/mL | > 250 µg/mL | > 250 µg/mL | > 250 µg/mL | > 250 µg/mL | > 250 µg/mL | > 250 µg/mL | > 250 µg/mL | > 250 µg/mL | > 250 µg/mL | > 250 µg/mL
